# Data: patent US8747810B2, “Compositions and methods for imaging tissues, organs and tumors” (President and Fellows of Harvard College, priority 2009, dated 2014)
# Columns and labels:
# [1] = tested on: B16F10 melanoma tumors; assay: In vivo biodistribution of 99mTc complexes in C57B16 mice bearing B16F10 melanoma tumors; conditions: for mel/blood: melanoma/blood ratio; for mel/liver: melanoma/liver ratio; for mel/lung: melanoma/lung ratio; for mel/spleen: melanoma/spleen ratio
# Description: To study the tumor uptake of ^99mTc complexes, ^99mTc-Z2-^99mTc-Z4, in vivo biodistribution experiment at 1, 3, 6 hours post intra-venous injection of the ^99mTc-complex were carried out in C57B16 mice bearing B16F10 melanoma tumors. The biodistribution data including melanoma/nontumor (M/NT) ratios for selected organs are summarized in Table 2 as percentage injected dose per gram (% ID/g) (Table 2). […] This is due to washout from no-tumor organs and increased retention in the tumor.
# [2] = tested on: B16 melanoma nodules; assay: In vivo biodistribution and tumor uptake of 99mTc complexes in C57B16 mice with B16 melanoma nodules; conditions: for mel/blood: melanoma/blood ratio; for mel/liver: melanoma/liver ratio; for mel/lung: melanoma/lung ratio; for mel/spleen: melanoma/spleen ratio
# Description: The biodistribution data including melanoma/nontumor (M/NT) ratios for selected organs, summarized in Table 1 as percentage injected dose per gram (% ID/g)
# To study the tumor uptake of radiolabeled metal complexes, in vivo, biodistribution experiments at 1 h after their administration were carried out in C57B16 male mice with palpable B16 melanoma nodules.
compound,measurement,setting,value
O=C1C[S][99Tc-]23(=[O])[S]CC[N+]2(CCCN2CCCCC2)CC[N]13 (stereo not drawn) [Tc-Z4],Eyes,[1]; 1 h postinjection,6.72 ± 0.77 % ID/g
same,blood,[1]; 1 h postinjection,0.33 ± 0.03 % ID/g
same,brain,[1]; 1 h postinjection,0.16 ± 0.01 % ID/g
same,heart,[1]; 1 h postinjection,0.59 ± 0.07 % ID/g
same,kidney,[1]; 1 h postinjection,2.50 ± 0.32 % ID/g
same,liver,[1]; 1 h postinjection,20.32 ± 1.0 % ID/g
same,lung,[1]; 1 h postinjection,2.37 ± 0.17 % ID/g
same,melanoma (tumor uptake),[1]; 1 h postinjection,3.43 ± 0.70 % ID/g
same,muscle,[1]; 1 h postinjection,0.63 ± 0.17 % ID/g
same,spleen,[1]; 1 h postinjection,1.37 ± 0.19 % ID/g
same,mel/blood,[1]; 1 h postinjection,10.50 ± 1.9
same,mel/liver,[1]; 1 h postinjection,0.17 ± 0.03
same,mel/lung,[1]; 1 h postinjection,1.45 ± 0.30
same,mel/spleen,[1]; 1 h postinjection,2.49 ± 0.24
same,Eyes,[1]; 3 h postinjection,7.19 ± 1.40 % ID/g
same,blood,[1]; 3 h postinjection,0.34 ± 0.09 % ID/g
same,brain,[1]; 3 h postinjection,0.18 ± 0.04 % ID/g
same,heart,[1]; 3 h postinjection,0.63 ± 0.07 % ID/g
same,kidney,[1]; 3 h postinjection,2.73 ± 0.76 % ID/g
same,liver,[1]; 3 h postinjection,16.67 ± 3.8 % ID/g
same,lung,[1]; 3 h postinjection,2.36 ± 0.54 % ID/g
same,melanoma (tumor uptake),[1]; 3 h postinjection,3.59 ± 1.76 % ID/g
same,muscle,[1]; 3 h postinjection,0.70 ± 0.52 % ID/g
same,spleen,[1]; 3 h postinjection,1.22 ± 0.42 % ID/g
same,mel/blood,[1]; 3 h postinjection,9.22 ± 4.93
same,mel/liver,[1]; 3 h postinjection,0.15 ± 0.09
same,mel/lung,[1]; 3 h postinjection,1.30 ± 0.67
same,mel/spleen,[1]; 3 h postinjection,2.57 ± 1.21
same,Eyes,[1]; 6 h postinjection,7.01 ± 0.41 % ID/g
same,blood,[1]; 6 h postinjection,0.14 ± 0.03 % ID/g
same,brain,[1]; 6 h postinjection,0.02 ± 0.01 % ID/g
same,heart,[1]; 6 h postinjection,0.25 ± 0.06 % ID/g
same,kidney,[1]; 6 h postinjection,1.07 ± 0.17 % ID/g
same,liver,[1]; 6 h postinjection,12.9 ± 1.72 % ID/g
same,lung,[1]; 6 h postinjection,0.91 ± 0.24 % ID/g
same,melanoma (tumor uptake),[1]; 6 h postinjection,3.52 ± 0.88 % ID/g
same,muscle,[1]; 6 h postinjection,0.09 ± 0.02 % ID/g
same,spleen,[1]; 6 h postinjection,0.58 ± 0.20 % ID/g
same,mel/blood,[1]; 6 h postinjection,24.95 ± 4.6
same,mel/liver,[1]; 6 h postinjection,0.28 ± 0.08
same,mel/lung,[1]; 6 h postinjection,3.99 ± 1.10
same,mel/spleen,[1]; 6 h postinjection,6.44 ± 2.12
"CCN(CC)CC[N+]12CC[S][99Tc-]13(=[O])[S]CC[N]3C(=O)C2 (stereo not drawn) [[TcOAADT]-C2—N(Et)2, [^99mTcOAADT]-(CH2)2—N(Et2), reference compound]",blood,[2]; 1 h postinjection,1.00 ± 0.46 % ID/g
same,brain,[2]; 1 h postinjection,0.30 ± 0.10 % ID/g
same,heart,[2]; 1 h postinjection,0.82 ± 0.37 % ID/g
same,kidney,[2]; 1 h postinjection,5.53 ± 0.81 % ID/g
same,liver,[2]; 1 h postinjection,12.7 ± 1.54 % ID/g
same,lung,[2]; 1 h postinjection,1.40 ± 0.49 % ID/g
same,melanoma (tumor uptake),[2]; 1 h postinjection,7.62 ± 0.62 % ID/g
same,muscle,[2]; 1 h postinjection,0.35 ± 0.21 % ID/g
same,spleen,[2]; 1 h postinjection,1.83 ± 0.55 % ID/g
same,mel/blood,[2]; 1 h postinjection,7.6 ± 0.54
same,mel/liver,[2]; 1 h postinjection,0.6 ± 0.09
same,mel/lung,[2]; 1 h postinjection,5.4 ± 0.60
same,mel/spleen,[2]; 1 h postinjection,4.2 ± 0.58
same,blood,[2]; 6 h postinjection,0.32 ± 0.19 % ID/g
same,brain,[2]; 6 h postinjection,0.05 ± 0.02 % ID/g
same,heart,[2]; 6 h postinjection,0.11 ± 0.02 % ID/g
same,kidney,[2]; 6 h postinjection,1.98 ± 0.21 % ID/g
same,liver,[2]; 6 h postinjection,4.08 ± 0.92 % ID/g
same,lung,[2]; 6 h postinjection,0.47 ± 0.21 % ID/g
same,melanoma (tumor uptake),[2]; 6 h postinjection,3.45 ± 1.2 % ID/g
same,muscle,[2]; 6 h postinjection,0.08 ± 0.01 % ID/g
same,spleen,[2]; 6 h postinjection,0.34 ± 0.10 % ID/g
same,mel/blood,[2]; 6 h postinjection,10.8 ± 1.00
same,mel/liver,[2]; 6 h postinjection,0.9 ± 0.35
same,mel/lung,[2]; 6 h postinjection,7.3 ± 0.98
same,mel/spleen,[2]; 6 h postinjection,10.1 ± 1.11
same,tumor uptake and retention (in words),[2]; over time,significant washout from the tumor over time
